# Legend:
# [1] = molecular target: T1, USP5 (Homo sapiens, UniProt P45974); assay: USP5 activity assay (Ub-AMC); assay type: biochemical; conditions: 300 nM Ub-AMC, 300 pM enzyme
# T1 sequence (P45974 1-858): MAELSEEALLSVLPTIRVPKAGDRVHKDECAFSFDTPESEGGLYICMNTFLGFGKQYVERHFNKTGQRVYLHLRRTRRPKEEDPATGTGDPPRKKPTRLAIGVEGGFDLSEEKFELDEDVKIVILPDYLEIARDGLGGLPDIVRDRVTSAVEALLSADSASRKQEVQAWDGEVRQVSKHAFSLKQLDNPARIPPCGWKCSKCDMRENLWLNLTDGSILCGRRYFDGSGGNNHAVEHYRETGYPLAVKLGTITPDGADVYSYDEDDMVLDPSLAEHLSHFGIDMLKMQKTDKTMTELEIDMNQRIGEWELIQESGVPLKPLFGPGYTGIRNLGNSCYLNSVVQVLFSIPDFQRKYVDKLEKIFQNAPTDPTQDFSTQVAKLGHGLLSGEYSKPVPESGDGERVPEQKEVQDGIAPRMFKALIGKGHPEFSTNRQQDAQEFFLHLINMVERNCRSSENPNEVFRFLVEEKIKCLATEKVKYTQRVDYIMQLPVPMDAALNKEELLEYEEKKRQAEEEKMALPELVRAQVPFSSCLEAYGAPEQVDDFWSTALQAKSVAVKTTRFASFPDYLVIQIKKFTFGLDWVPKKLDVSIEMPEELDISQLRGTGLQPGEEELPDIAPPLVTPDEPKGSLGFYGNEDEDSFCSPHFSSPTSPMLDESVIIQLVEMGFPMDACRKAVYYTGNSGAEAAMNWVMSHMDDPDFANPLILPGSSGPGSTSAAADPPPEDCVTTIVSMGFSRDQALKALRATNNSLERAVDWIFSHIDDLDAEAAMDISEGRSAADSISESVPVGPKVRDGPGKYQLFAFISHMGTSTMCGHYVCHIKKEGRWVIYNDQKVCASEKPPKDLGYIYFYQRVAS
# Protocol: USP5 was diluted in USP buffer (50 mM Tris HCl; 0.5 mM EDTA; 5 mM DTT; 0.01% Triton X-100; Bovine Serum Albumin 0.05 mg·ml^−1 pH 7.6). Compounds stocks (100 mM) were stored at −20° C. in DMSO. Compounds were tested at different concentrations: from 200 μM to 91 nM.
# Reactions were performed as duplicates in Black 384 well plates (small volume microplates; Greiner; 10 μl final reaction volume). The substrate concentration for USP5 was 300 nM Ub-AMC (Boston Biochem). The concentrations of the enzyme (USP5) in specificity assays was 300 pM. The concentrations were determined in order to perform specificity assays under initial velocities at fixed substrate concentration. Compounds were pre-incubated with enzymes for 30 minutes at 25° C. Reactions were initiated by addition of substrate to the plates containing the enzymes (+/−compounds) diluted in assay buffer. Reactions were incubated for 60 minutes at 37° C. Reactions were stopped by adding acetic acid (100 mM final). Readings were performed on a Pherastar Fluorescent Reader (BMG). λ Emission 380 nm; λ Excitation=460 nm. Data (mean values+/−standard deviation) were analyzed as % of control (no compound) and plotted as percentage versus the Log of the compound concentration using GraphPad (Prism). Data were fitted to a sigmoidal model (variable slope).
# [2] = molecular target: T2, Caspase 3 (Homo sapiens, UniProt P42574); assay: Caspase 3 activity assay (Ac-DEVD-AMC); assay type: biochemical; conditions: 250 nM Ac-DEVD-AMC, 1.6 nM enzyme
# T2 sequence (P42574 29-175 limits assumed): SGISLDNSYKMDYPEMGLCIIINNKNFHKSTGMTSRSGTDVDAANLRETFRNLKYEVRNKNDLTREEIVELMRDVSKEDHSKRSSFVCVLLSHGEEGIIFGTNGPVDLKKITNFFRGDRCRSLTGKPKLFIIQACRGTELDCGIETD
# T2 sequence (P42574 176-277 limits assumed): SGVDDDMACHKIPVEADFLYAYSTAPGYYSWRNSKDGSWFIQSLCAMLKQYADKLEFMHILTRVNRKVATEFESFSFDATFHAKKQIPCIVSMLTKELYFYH
# Protocol: Caspase 3 was diluted in Caspase 3 buffer (100 mM Hepes pH 7.5; 10% sucrose; 0.1% CHAPS). Compounds stocks (100 mM) were stored at −20° C. in DMSO. Compounds were tested at different concentrations: from 200 μM to 91 nM.
# Reactions were performed as duplicates in Black 384 well plates (small volume microplates; Greiner; 10 μl final reaction volume). The substrate concentration for caspase 3 specificity assay was 250 nM (Ac-DEVD-AMC; Promega). The concentration of the enzyme (Caspase 3) in specificity assays was 1.6 nM. The concentrations were determined in order to perform specificity assays under initial velocities at fixed substrate concentration. Compounds were pre-incubated with enzymes for 30 minutes at 25° C. Reactions were initiated by addition of substrate to the plates containing the enzymes (+/−compounds) diluted in assay buffer. Reactions were incubated for 60 minutes at 37° C. Reactions were stopped by adding acetic acid (100 mM final). Readings were performed on a Pherastar Fluorescent Reader (BMG). λ Emission 380 nm; λ Excitation=460 nm. Data (mean values+/−standard deviation) were analyzed as % of control (no compound) and plotted as percentage versus the Log of the compound concentration using GraphPad (Prism). Data were fitted to a sigmoidal model (variable slope).
# [3] = system: HCT116 colon cancer cells; assay: HCT116 cell viability and proliferation assay (MTS); assay type: cell-based; conditions: Homo sapiens, HCT-116, HCT116, 72 hours, read-out: Cell viability (MTS): HCT116 Gl50 Day 3
# Protocol: HCT116 colon cancer cells were obtained from ATCC (American Type Culture Collection), and maintained in Mc Coy's 5A medium containing 10% FBS, 3 mM glutamine and 1% penicillin/streptomycin. Cells were incubated at 37° C. in a humidified atmosphere containing 5% CO2.
# Cell viability was assayed using the MTS technique in 96-well culture plates (CellTiter 96® Aqueous Non-Radioactive Cell Proliferation Assay, Promega) according to the manufacturer's instructions. MTS (3-(4,5-dimethyl-thiazol-2-yl)-5-(3-carboxy-methoxyphenyl)-2-(4-sulfophenyl)-2H-tetra-zolium) is a MTT-derived tetrazolium that is reduced in metabolically active cells into a soluble, cell-permeant formazan. The amount of formazan, detected by its absorbance at 492 nm is proportional to the number of living, metabolically active cells.
# 10^3 HCT116 cells were seeded per well. 24 hours later, the medium was changed and the cells treated in triplicate with the concentrations of each compound from 100 μM to 50 nM. The compounds were diluted in 100% DMSO, whose final concentration on cells was kept at 0.5%.
# Cells were incubated with the compounds for 72 hours, and their viability then assayed by the addition of MTS for 2 hours. Absorbance at 492 nm was measured directly from the 96-well culture plates. GI50 (Growth Inhibition 50) concentrations for each compound were calculated using a sigmoidal variable slope fit (Prism 4.0, Graphpad Softwares). Values represent mean of three independent experiments.
SMILES,IC50 [1],IC50 [2],IC50 [3]
"O=C(c1ccc2c(Cl)c3c(nc2c1)CCCC3)N1CCCCCC1 [Example 12, Azepan-1-yl-(9-chloro-5,6,7,8-tetrahydro-acridin-3-yl)-methanone]",> 200 µM,> 200 µM,20 µM
"CCCN(CCC)CCCNC(=O)c1ccc2c(Cl)c3c(nc2c1)CCCC3 [Example 6, 9-Chloro-5,6,7,8-tetrahydro-acridine-3-carboxylic acid (3-dipropylamino-propyl)-amide]",> 200 µM,> 200 µM,3.9 µM
"Cc1cccc(CN2CCC(CNC(=O)c3ccc4c(Cl)c5c(nc4c3)CCCC5)CC2)c1 [Example 1, 9-Chloro-5,6,7,8-tetrahydro-acridine-3-carboxylic acid [1-(3-methyl-benzyl)-piperidin-4-ylmethyl]-amide]",> 200 µM,> 200 µM,2 µM
"CCN1CCCC1CNC(=O)c1ccc2c(Cl)c3c(nc2c1)CCCC3 (stereo not drawn) [Example 2, 9-Chloro-5,6,7,8-tetrahydro-acridine-3-carboxylic acid (1-ethyl-pyrrolidin-2-ylmethyl)-amide]",> 200 µM,> 200 µM,5 µM
"CCN(CC)CCNC(=O)c1ccc2c(Cl)c3c(nc2c1)CCCC3 [Example 7, 9-Chloro-5,6,7,8-tetrahydro-acridine-3-carboxylic acid (2-diethylamino-ethyl)-amide]",> 200 µM,> 200 µM,4.3 µM
"CC1CCCC(C)N1CCCNC(=O)c1ccc2c(Cl)c3c(nc2c1)CCCC3 (stereo not drawn) [Example 9, 9-Chloro-5,6,7,8-tetrahydro-acridine-3-carboxylic acid [3-(2,6-dimethyl-piperidin-1-yl)-propyl]-amide]",> 200 µM,> 200 µM,3.6 µM
"CN(CCCNC(=O)c1ccc2c(Cl)c3c(nc2c1)CCCC3)Cc1ccccc1 [Example 14, 9-Chloro-5,6,7,8-tetrahydro-acridine-3-carboxylic acid [3-(benzyl-methyl-amino)-propyl]-amide]",> 200 µM,> 200 µM,4.1 µM
"O=C(NCCCN1CCCC1)c1ccc2c(Cl)c3c(nc2c1)CCCC3 [Example 8, 9-Chloro-5,6,7,8-tetrahydro-acridine-3-carboxylic acid (3-pyrrolidin-1-yl-propyl)-amide]",> 200 µM,> 200 µM,5.9 µM
"O=C(c1ccc2c(Cl)c3c(nc2c1)CCCC3)N1CCC(N2CCCCC2)CC1 [Example 16, [1,4′]Bipiperidinyl-1′-yl-(9-chloro-5,6,7,8-tetrahydro-acridin-3-yl)-methanone]",> 200 µM,> 200 µM,13.5 µM
"CCCCN(CC)CCNC(=O)c1ccc2c(Cl)c3c(nc2c1)CCCC3 [Example 4, 9-Chloro-5,6,7,8-tetrahydro-acridine-3-carboxylic acid [2-(butyl-ethyl-amino)-ethyl]-amide]",> 200 µM,> 200 µM,4 µM
"CN1CCN(CCCNC(=O)c2ccc3c(Cl)c4c(nc3c2)CCCC4)CC1 [Example 15, 9-Chloro-5,6,7,8-tetrahydro-acridine-3-carboxylic acid [3-(4-methyl-piperazin-1-yl)-propyl]-amide]",> 200 µM,> 200 µM,7.4 µM
"CCCN(CCC)CCNC(=O)c1ccc2c(Cl)c3c(nc2c1)CCCC3 [Example 3, 9-Chloro-5,6,7,8-tetrahydro-acridine-3-carboxylic acid (2-dipropylamino-ethyl)-amide]",> 200 µM,> 200 µM,3.5 µM
"CCCN1CCN(CCCNC(=O)c2ccc3c(Cl)c4c(nc3c2)CCCC4)CC1 [Example 13, 9-Chloro-5,6,7,8-tetrahydro-acridine-3-carboxylic acid [3-(4-propyl-piperazin-1-yl)-propyl]-amide]",> 200 µM,> 200 µM,5.9 µM
"CCN(CCCNC(=O)c1ccc2c(Cl)c3c(nc2c1)CCCC3)Cc1ccccc1 [Example 5, 9-Chloro-5,6,7,8-tetrahydro-acridine-3-carboxylic acid [3-(benzyl-ethyl-amino)-propyl]-amide]",> 200 µM,> 200 µM,4 µM
"CCN(CC)CCCNC(=O)c1ccc2c(Cl)c3c(nc2c1)CCCC3 [Example 10, 9-Chloro-5,6,7,8-tetrahydro-acridine-3-carboxylic acid (3-diethylamino-propyl)-amide]",> 200 µM,> 200 µM,5 µM
"CN(C)CCNC(=O)c1ccc2c(Cl)c3c(nc2c1)CCCC3 [Example 11, 9-Chloro-5,6,7,8-tetrahydro-acridine-3-carboxylic acid (2-dimethylamino-ethyl)-amide]",> 200 µM,> 200 µM,7.8 µM

# From patent US20110177105A1, “Novel Selective Inhibitors of Ubiquitin Specific Protease 7, the Pharmaceutical Compositions Thereof and Their Therapeutic Applications” (priority 2010, published 2011)
